Consider three compounds from patent US20220009920A1 (GB005, Inc., priority 2020, published 2022).

As usually defined, the inhibition is the drop in the measured response relative to a control, in per cent.

What all share (assay): Large panel kinase profiling
Holding throughout (assay type): biochemical
Settings in all cases: 1 μM test article, 1 mM ATP

One experiment has as its target ALK (Homo sapiens, UniProt Q9UM73). In outline:
(§1)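 Steps: combine kinase, CSox-Sensor substrate, 1 mM ATP and 1 μM compound; seal and incubate at 30° C.; read top fluorescence kinetically each minute, Ex 360 nm/Em 485 nm.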

The target in a further experiment is T1, MAP3K12 (Homo sapiens, UniProt Q12852).
T1 sequence (Q12852 1-859): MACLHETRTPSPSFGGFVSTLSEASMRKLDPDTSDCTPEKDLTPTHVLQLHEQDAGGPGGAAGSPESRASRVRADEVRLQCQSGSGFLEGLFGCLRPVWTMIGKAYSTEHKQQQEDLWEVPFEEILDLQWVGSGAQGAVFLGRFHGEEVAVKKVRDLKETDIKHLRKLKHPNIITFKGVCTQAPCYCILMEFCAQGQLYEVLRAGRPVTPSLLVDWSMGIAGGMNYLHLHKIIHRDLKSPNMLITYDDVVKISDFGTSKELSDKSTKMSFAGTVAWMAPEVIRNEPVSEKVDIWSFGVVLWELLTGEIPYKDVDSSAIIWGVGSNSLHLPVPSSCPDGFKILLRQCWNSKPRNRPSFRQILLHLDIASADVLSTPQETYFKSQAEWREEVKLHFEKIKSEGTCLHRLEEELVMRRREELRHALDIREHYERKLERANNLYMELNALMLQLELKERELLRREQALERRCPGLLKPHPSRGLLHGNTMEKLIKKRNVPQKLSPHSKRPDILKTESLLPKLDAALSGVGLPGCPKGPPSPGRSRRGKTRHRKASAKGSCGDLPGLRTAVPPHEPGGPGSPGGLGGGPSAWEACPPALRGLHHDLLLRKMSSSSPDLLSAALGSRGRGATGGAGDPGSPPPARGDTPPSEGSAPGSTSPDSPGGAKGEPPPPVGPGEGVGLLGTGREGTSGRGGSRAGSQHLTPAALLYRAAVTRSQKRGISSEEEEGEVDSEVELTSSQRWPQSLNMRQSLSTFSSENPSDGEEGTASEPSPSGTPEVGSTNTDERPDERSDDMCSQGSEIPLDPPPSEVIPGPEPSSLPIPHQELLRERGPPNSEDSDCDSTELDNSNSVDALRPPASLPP
The gist of the method: as §1

In a further experiment the target is T2, MAPK11/P38B (Homo sapiens, UniProt Q15759).
T2 construct: AssayQuant Technologies, Inc. (service provider)
T2 sequence (Q15759 whole entry): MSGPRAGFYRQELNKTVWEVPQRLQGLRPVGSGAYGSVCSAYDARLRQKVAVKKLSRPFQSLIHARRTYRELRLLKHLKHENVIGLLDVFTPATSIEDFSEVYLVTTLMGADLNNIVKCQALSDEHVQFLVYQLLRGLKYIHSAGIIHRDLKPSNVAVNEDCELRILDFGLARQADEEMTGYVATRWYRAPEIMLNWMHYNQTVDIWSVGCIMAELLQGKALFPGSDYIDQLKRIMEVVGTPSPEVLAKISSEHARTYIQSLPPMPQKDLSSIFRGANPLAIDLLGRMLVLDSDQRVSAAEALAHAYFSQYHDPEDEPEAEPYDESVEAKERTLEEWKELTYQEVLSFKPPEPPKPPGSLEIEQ
In outline:
as §1

The target of a further experiment is T3, EPHB1 (Homo sapiens, UniProt P54762).
T3 sequence (P54762 18-984): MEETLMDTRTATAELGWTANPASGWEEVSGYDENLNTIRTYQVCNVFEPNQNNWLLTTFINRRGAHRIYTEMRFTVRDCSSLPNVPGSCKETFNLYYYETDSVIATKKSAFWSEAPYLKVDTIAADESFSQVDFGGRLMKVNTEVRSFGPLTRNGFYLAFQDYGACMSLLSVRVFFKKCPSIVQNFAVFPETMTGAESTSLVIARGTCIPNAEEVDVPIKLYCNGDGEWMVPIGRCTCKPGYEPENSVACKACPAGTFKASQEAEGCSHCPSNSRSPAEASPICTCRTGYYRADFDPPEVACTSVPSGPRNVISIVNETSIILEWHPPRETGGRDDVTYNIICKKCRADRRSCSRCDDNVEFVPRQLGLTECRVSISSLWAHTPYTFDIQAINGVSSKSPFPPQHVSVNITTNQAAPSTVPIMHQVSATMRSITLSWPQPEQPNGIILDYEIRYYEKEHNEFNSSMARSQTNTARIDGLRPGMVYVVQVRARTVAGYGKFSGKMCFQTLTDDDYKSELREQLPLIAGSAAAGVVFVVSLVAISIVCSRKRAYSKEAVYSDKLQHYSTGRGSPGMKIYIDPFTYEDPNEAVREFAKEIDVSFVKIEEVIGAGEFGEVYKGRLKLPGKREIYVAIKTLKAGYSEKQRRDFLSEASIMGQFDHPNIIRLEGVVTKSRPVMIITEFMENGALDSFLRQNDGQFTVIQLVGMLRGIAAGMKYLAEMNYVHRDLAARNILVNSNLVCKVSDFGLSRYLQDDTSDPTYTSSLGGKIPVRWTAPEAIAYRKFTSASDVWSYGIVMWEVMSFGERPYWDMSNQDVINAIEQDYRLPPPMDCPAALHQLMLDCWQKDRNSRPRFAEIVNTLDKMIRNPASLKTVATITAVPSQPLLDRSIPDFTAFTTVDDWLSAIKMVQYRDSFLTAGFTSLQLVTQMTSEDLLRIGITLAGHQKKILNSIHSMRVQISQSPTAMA
In outline: as §1

Another experiment concerns the target AKT3 (Homo sapiens, UniProt Q9Y243). In outline: as §1

Chain of ALK (Q9UM73 19-1620): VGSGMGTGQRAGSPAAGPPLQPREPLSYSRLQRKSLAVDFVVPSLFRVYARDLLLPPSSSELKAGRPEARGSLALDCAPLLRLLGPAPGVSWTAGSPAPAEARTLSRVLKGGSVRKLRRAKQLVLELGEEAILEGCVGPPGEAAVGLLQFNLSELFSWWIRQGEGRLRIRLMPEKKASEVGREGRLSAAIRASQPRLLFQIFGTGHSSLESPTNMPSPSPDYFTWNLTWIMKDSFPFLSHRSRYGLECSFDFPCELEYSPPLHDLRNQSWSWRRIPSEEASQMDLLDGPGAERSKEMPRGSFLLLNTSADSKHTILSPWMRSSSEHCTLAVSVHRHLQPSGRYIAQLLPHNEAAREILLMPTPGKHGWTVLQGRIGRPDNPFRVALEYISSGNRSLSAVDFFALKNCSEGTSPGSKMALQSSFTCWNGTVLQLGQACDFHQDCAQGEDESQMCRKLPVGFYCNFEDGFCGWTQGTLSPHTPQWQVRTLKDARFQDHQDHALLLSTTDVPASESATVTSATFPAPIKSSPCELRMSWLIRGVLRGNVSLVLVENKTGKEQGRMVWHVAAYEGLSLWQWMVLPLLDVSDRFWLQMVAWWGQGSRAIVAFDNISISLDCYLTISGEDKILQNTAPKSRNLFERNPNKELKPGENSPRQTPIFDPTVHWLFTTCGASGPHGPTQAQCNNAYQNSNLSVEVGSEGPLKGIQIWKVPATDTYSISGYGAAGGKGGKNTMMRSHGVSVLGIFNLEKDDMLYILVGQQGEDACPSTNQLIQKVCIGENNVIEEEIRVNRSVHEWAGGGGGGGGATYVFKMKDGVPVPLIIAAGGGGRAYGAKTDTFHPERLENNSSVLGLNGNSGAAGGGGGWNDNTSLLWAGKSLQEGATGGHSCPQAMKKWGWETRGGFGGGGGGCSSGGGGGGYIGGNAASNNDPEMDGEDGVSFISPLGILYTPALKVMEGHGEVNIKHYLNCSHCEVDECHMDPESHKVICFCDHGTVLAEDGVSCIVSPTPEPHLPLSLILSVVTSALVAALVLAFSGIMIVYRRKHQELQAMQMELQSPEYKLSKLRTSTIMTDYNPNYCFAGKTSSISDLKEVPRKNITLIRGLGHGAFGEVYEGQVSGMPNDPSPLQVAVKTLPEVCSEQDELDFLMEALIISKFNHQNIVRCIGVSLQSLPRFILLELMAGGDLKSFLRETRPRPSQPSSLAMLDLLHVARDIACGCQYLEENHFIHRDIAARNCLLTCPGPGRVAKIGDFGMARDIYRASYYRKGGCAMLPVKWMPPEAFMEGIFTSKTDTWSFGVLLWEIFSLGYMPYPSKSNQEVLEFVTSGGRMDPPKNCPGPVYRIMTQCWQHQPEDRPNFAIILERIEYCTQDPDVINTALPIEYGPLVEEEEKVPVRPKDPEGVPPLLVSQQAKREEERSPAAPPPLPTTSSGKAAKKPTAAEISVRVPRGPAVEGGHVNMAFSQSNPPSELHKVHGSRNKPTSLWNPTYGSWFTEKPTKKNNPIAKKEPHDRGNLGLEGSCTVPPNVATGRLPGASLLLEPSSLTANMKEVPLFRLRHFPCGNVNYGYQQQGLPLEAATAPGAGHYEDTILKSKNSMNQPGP
Chain of AKT3 (Q9Y243 whole entry): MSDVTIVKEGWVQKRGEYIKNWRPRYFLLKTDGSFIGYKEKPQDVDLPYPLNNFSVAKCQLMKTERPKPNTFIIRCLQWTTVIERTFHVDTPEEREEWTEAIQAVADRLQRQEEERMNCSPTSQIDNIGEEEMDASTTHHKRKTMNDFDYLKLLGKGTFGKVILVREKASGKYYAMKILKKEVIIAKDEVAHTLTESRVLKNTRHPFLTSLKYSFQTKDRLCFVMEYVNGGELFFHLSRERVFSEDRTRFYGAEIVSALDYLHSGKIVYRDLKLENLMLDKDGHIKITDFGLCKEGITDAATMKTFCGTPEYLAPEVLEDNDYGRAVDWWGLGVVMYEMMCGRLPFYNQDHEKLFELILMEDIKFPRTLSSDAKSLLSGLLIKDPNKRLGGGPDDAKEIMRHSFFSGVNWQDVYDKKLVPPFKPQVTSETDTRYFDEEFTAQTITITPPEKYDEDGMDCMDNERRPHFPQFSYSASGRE

Take `C=CC(=O)N1CCC[C@@H](c2c(F)cc(C(N)=O)c3[nH]c4c(c23)CCC4)C1` [Compound 10-2, (S)-8-(1-acryloylpiperidin-3-yl)-7-fluoro-1,2,3,4-tetrahydrocyclo-penta[b]indole-5-carboxamide]: the inhibition at 1 µM on ALK was -2.7%; on MAP3K12, -27.7%; against MAPK11/P38B it was 5.7%; against EPHB1, -3.1%; on AKT3, -19.4%.
As for `C=CC(=O)N1CCCC(c2c(F)cc(C(N)=O)c3[nH]c4c(c23)CCCCC4)C1` (single isomer, unassigned) [Compound 5-6], the inhibition at 1 µM at ALK is -26.4%; against MAP3K12, 5%; against MAPK11/P38B, -3.3%; against EPHB1 it was 14.5%; at AKT3 it was -14.4%.
With `C=CC(=O)N1CCC[C@@H](c2c(F)cc(C(N)=O)c3[nH]c4c(c23)CC2(CC4)CC2)C1` [Compound 6-2, (S)-5-(1-acryloylpiperidin-3-yl)-6-fluoro-1,2,4,9-tetrahydrospiro[carbazole-3,1′-cyclopropane]-8-carboxamide], the inhibition at 1 µM was 11.7% against ALK; -18.8% at MAP3K12; 32.9% against MAPK11/P38B; 12.4% against EPHB1; -16.3% on AKT3.
